Assay results: patent US20090131366A1, “Use of Amine-Borane Compounds as Anti-Microbial Agents” (priority 2005, published 2009)
Converted amounts (≈) assume the structure as drawn. Read-outs that look alike come from different tables or passages of the source.

Legend:
Candida albicans CBS 562 = format: cell-based
Candida albicans 607 = format: cell-based
[1] = test system: Aspergillus fumigatus 64026; format: cell-based
Candida albicans 615 = format: cell-based
Candida glabrata 4210 = format: cell-based; conditions: Table 1, footnote c
[2] = test system: Candida glabrata 4475 (resistant to azoles); format: cell-based; conditions: Table 1, footnote c
Candida glabrata 4681 = format: cell-based; conditions: Table 1, footnote c
male ICR mice = conditions: mice that received the MTD
Candida glabrata 4787 = format: cell-based
in vivo = conditions: male, ICR, mouse, iv

Row | Compound | MIC (Candida albicans CBS 562; Table 1) | MIC (Candida albicans 607; Table 1) | MIC (Candida albicans 615; Table 1) | MIC (Candida albicans CBS 562; CBS562, Table 1, read-out: MIC) | MIC (Candida albicans 607; Table 1, read-out: MIC) | MIC ([1]; Table 1, read-out: MIC) | MIC (Candida albicans 615; Table 1, read-out: MIC) | further results
1 | C[C@@H]1[C@H](O)[C@@H](C)/C=C/C=C/C=C/C=C/C=C/C=C/C=C/[C@H](O[C@@H]2O[C@H](C)[C@@H](O)[C@H](N)[C@@H]2O)C[C@@H]2O[C@](O)(C[C@@H](O)C[C@@H](O)[C@H](O)CC[C@@H](O)C[C@@H](O)CC(=O)O[C@H]1C)C[C@H](O)[C@H]2C(=O)O [CAF1, Amphotericin B, reference compound] | 0.54 µM (≈ 0.499 µg/mL) | 0.27 µM (≈ 0.25 µg/mL) | 0.27 µM (≈ 0.25 µg/mL) |  |  |  |  | MIC ([1]; Table 1): 0.5 µM (≈ 0.462 µg/mL)
2 | OC(Cn1cncn1)(Cn1cncn1)c1ccc(F)cc1F [CAF2, Fluconazole, reference compound] |  |  |  | 1.6 µM (≈ 0.49 µg/mL) | 1.6 µM (≈ 0.49 µg/mL) | > 208 µM | 1.6 µM (≈ 0.49 µg/mL) | 
3 | C=CCCN(C)C [K-D, but-3-enyl-dimethyl-amine cyanoborane] |  |  |  | 470 µM (≈ 46.6 µg/mL) | 3620 µM (≈ 359 µg/mL) | > 3620 µM | > 3620 µM | 
4 | C[N+](C)(C)[B-](Br)(Br)C#N [K-E, trimethyl-amine cyanodibromoborane] | 1970 µM (≈ 504 µg/mL) | >1970 µM | >1970 µM |  |  |  |  | MIC (Candida glabrata 4210): 500^c μg per liter; MIC [2]: >500^c μg per liter
5 | CCCCN(C)C [K-G, butyl-dimethyl-amine cyanoborane] |  |  |  | 3570 µM (≈ 361 µg/mL) | > 3570 µM | > 3570 µM | > 3570 µM | 
6 | CCCCCN(C)C [K-H, pentyl-dimethyl-amine cyanoborane] |  |  |  | 810 µM (≈ 93.3 µg/mL) | 3240 µM (≈ 373 µg/mL) | 3240 µM (≈ 373 µg/mL) | 3240 µM (≈ 373 µg/mL) | 
7 | CCCCCCCCCCCN(C)C [K-I1, dimethyl-undecyl-amine cyanobromoborane] |  |  |  |  |  |  |  | MIC (Candida albicans CBS 562; Candida albicans, CBS562, Table 1 column A, read-out: MIC): 49 µM (≈ 9.77 µg/mL); MIC (Candida albicans 607; Candida albicans, 607, Table 1 column B, read-out: MIC): 49 µM (≈ 9.77 µg/mL); MIC ([1]; Aspergillus fumigatus, 64026, Table 1 column I, read-out: MIC): 131 µM (≈ 26.1 µg/mL); MIC (Candida albicans 615; Candida albicans, 615, Table 1 column C, read-out: MIC): 49 µM (≈ 9.77 µg/mL)
8 | CCCCCCCCCCCN(C)C [K-I2, dimethyl-undecyl-amine cyanodibromoborane] | 39 µM (≈ 7.78 µg/mL) | 39 µM (≈ 7.78 µg/mL) | 39 µM (≈ 7.78 µg/mL) |  |  |  |  | MIC (Candida glabrata 4681): 32^c μg per liter; clinical signs, body weights and gross necropsy (day 8) (male ICR mice): No changes; MIC (Candida glabrata 4787; Table 1): 32 µM (≈ 6.38 µg/mL); MTD (in vivo): 73.1 µmol/kg; MIC ([1]; Table 1): 79 µM (≈ 15.8 µg/mL)
9 | CCCCCCCCCCCN(C)C [K-I3, dimethyl-undecyl-amine cyanofluorobromoborane] |  |  |  |  |  |  |  | MIC (Candida albicans CBS 562; Candida albicans, CBS562, 24 h, Table 1, read-out: MIC): 7.8 µM (≈ 1.56 µg/mL)
10 | CCCCCCCCCCCN(C)C [K-I4, dimethyl-undecyl-amine cyanofluoroborane] | 64 µM (≈ 12.8 µg/mL) | 64 µM (≈ 12.8 µg/mL) | 64 µM (≈ 12.8 µg/mL) |  |  |  |  | MIC ([1]; Table 1): 129 µM (≈ 25.7 µg/mL)
11 | C[N+](C)(CCCCCCCCCC[N+](C)(C)[B-](Br)(Br)C#N)[B-](Br)(Br)C#N [K-J2, N,N,N′,N′-tetramethyl-decane-1,10-diamine bis-cyanodibromoborane] | 104 µM (≈ 64.7 µg/mL) | 104 µM (≈ 64.7 µg/mL) | 104 µM (≈ 64.7 µg/mL) |  |  |  |  | MIC (Candida glabrata 4681): 65^c μg per liter; MIC (Candida glabrata 4787; Table 1): 65 µM (≈ 40.4 µg/mL); MIC (Candida glabrata 4210): 65^c μg per liter; MIC [2]: 65^c μg per liter
12 | CN(C)CCCCCCCCCCCCN(C)C [K-M, N,N,N′,N′-tetramethyl-dodecane-1,12-diamine bis-cyanoborane] |  |  |  | 96 µM (≈ 24.6 µg/mL) | 194 µM (≈ 49.8 µg/mL) |  | 46 µM (≈ 11.8 µg/mL) | MIC (Candida glabrata 4681): 125^c μg per liter; MIC (Candida glabrata 4787; Nakaseomyces glabratus, Table 1, read-out: MIC): 250 µM (≈ 64.1 µg/mL)
13 | CN(C)CCCCCCCCCCCCCCN(C)C [K-N, N,N,N′,N′-tetramethyl-tetradecane-1,14-diamine bis-cyanoborane] |  |  |  | 43 µM (≈ 12.2 µg/mL) | 43 µM (≈ 12.2 µg/mL) | 86 µM (≈ 24.5 µg/mL) | 43 µM (≈ 12.2 µg/mL) | 
14 | CCCCCCC(C)(O)CN(C)C (centres unmarked) [K-O, 1-dimethylamino-2-methyl-octan-2-ol cyanoborane] |  |  |  | 2210 µM (≈ 414 µg/mL) | 1100 µM (≈ 206 µg/mL) |  | 1100 µM (≈ 206 µg/mL) | 
15 | CCCCCCCCCC(O)CN(C)C (centres unmarked) [K-U, 1-dimethylamino-undecan-2-ol cyanoborane] |  |  |  | 492 µM (≈ 106 µg/mL) | 492 µM (≈ 106 µg/mL) | 492 µM (≈ 106 µg/mL) | 983 µM (≈ 212 µg/mL) | 
16 | C=CCCCCN(C)C [K-V, hex-5-enyl-dimethyl-amine cyanoborane] |  |  |  | 94 µM (≈ 12 µg/mL) | 94 µM (≈ 12 µg/mL) | 94 µM (≈ 12 µg/mL) | 94 µM (≈ 12 µg/mL) | 
17 | N,N,N′,N′-tetramethyl- decane-1,10-diamine bis- carboxyborane [K-J3] | 188 µM | 188 µM | 907 µM |  |  |  |  | MIC (Candida glabrata 4681): 65^c μg per liter; MIC (Candida glabrata 4787; Table 1): 65 µM; MIC (Candida glabrata 4210): 65^c μg per liter; MIC [2]: 31.2^c μg per liter
18 | N,N,N′,N′-tetramethyl- decane-1,10-diamine bis- cyanobromoborane [K-J1] | 140 µM | 140 µM | 140 µM |  |  |  |  | MIC (Candida glabrata 4681): 65^c μg per liter; MIC (Candida glabrata 4787; Table 1): 65 µM; MIC (Candida glabrata 4210): 65^c μg per liter; MIC [2]: 65^c μg per liter
